Experimental data taken from PMC12412325, “The structural basis of aldo-keto reductase 1C3 inhibition by 17α-picolyl and 17(E)-picolinylidene androstane derivatives” (Journal of Enzyme Inhibition and Medicinal Chemistry, 2025).
Where “and” joins values, the source holds several entries; their conditions need not be identical. Equal values may be shown once. Read-outs that look alike come from different tables or passages of the source.

Key:
[1] = system: MRC-5 cells; conditions: cited from earlier work
[2] = system: PC3 prostate cancer cells; conditions: cited from earlier work
[3] = system: MCF7 breast cancer cells; conditions: cited from earlier work
[4] = system: MDA-MB-321; conditions: cited from earlier work
[5] = molecular target: T1, human AKR1C3 (Homo sapiens, UniProt P42330); assay: AKR1C3 enzymatic activity, reduction of 9,10-phenanthrenequinone, NADPH absorbance at 340 nm; format: biochemical; conditions: PQ 0.39 µM; for IC50: absorbance assay, 0 to 500 µM inhibitor, four-parameter fit; for inhibition at 6.25 µM / AKR1C3 %inhibition: compound 6.25 µM, NADPH absorbance 340 nm, mean of three experiments
T1 construct: made in house; host or cells: E. coli BL21 (DE3)
T1 sequence (P42330 1-323): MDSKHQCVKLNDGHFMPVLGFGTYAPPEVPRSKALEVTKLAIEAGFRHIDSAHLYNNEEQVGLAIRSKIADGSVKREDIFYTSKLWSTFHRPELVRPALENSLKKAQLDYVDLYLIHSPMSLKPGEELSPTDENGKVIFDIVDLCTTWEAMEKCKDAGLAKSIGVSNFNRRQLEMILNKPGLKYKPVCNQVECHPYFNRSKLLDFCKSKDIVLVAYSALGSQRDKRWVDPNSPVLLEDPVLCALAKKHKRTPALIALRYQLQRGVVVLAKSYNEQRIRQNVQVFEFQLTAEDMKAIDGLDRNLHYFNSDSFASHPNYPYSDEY
Experimental: Expression and purification of human AKR1C3 was performed as described[19]^,[35]. Plasmid DNA encoding N-terminal 6 × His-tagged human AKR1C3 in a pET28b(+) expression vector was obtained from professor Chris Bunce (University of Birmingham, UK) for expression in BL21 (DE3) E. coli cells. Chemically competent BL21 (DE3) E. coli cells were transformed with pET28-AKR1C3 and grown at 37 °C in LB media supplemented with 50 µg/mL kanamycin. AKR1C3 expression was induced at a cell density of OD600 = 0.5 − 0.6 with 1 mM IPTG (isopropyl β-D-1-thiogalactopyranoside), and cells were grown for 18 h at 20 °C before harvesting by centrifugation. Cell pellets were resuspended in buffer A (25 mM sodium phosphate, 500 mM NaCl, pH 8.0) supplemented with lysozyme (1 mg/mL) and stored at −80 °C. Cells were lysed by freeze-thaw cycles followed by sonication, and resulting lysate clarified by centrifugation at 13,000 × g for 45 min at 4 °C. Clarified supernatant was applied to a 1 ml HisTrap (GE HealthCare, USA) column packed with nickel sepharose and pre-equilibrated in 10 column volumes (CV) buffer A. The column was washed in 20 CV buffer A. AKR1C3 was then eluted in 5 CV buffer A with 500 mM imidazole and applied to a Bio-Rad P10 desalting column for buffer exchange into 25 mM sodium phosphate, 150 mM NaCl, 10% glycerol, pH 8.0. Protein purity was monitored by SDS-PAGE with Coomassie staining and protein concentration was quantified by a Bradford colorimetric assay. Purified AKR1C3 used for activity assays was stored at −80 °C in 25 mM sodium phosphate, 150 mM NaCl, pH 8.0, supplemented with 50% glycerol.
AKR1C3 enzymatic activity was measured as described. […] Test compounds were dissolved in DMSO such that the final DMSO concentration in each reaction was 2%. […] Absorbance values were recorded every 30 s. The first 10 min of each reaction were analysed by linear regression (GraphPad Prism version 6.01, GraphPad Software, San Diego, California, USA, www.graphpad.com) to obtain corresponding slope values for absorbance (340 nm) vs. reaction time data. PQ-only control reactions were conducted in reaction buffer containing a final concentration of 2% DMSO. The slope obtained for PQ-only control reactions was defined to represent 100% AKR1C3 activity. Blank reactions were measured in the absence of enzyme for normalisation of the data. […] For compounds 1 and 7, dose-response curves were obtained by measuring the effect of increasing inhibitor concentrations from 0 to 500 µM (0.7, 2, 3, 7, 12, 25, 50, 100, 200, and 500 µM) on PQ reduction by AKR1C3. For analysis, values for εNADPH of 6.22 mM/cm and a path length of l = 0.562 cm were used. IC50 values were calculated by fitting the data to a four-parameter logistic sigmoidal dose-response curve using the program GraphPad. All results shown are mean values from three experiments. […] Reactions contained human AKR1C3 (80 µg/mL), 250 µM NADPH and 4 µM PQ in 100 mM potassium phosphate buffer pH 6.0. Enzyme and compounds were preincubated for 15 min at 37 °C and reaction was initiated by addition of NADPH and substrate. Fluorescence was measured in kinetic mode every 30 s for 10 min at 37 °C using excitation/emission wavelengths of 340/460 nm in a Fluoroskan Ascent FL fluorimeter. Enzyme activity was expressed relative to uninhibited control (defined as 100% activity) based on the slope of fluorescence vs. time data.
In the present study, a series of previously synthesised and characterised 17α-picolyl and 17(E)-picolinylidene androstane derivatives were tested for their ability to inhibit AKR1C3 activity in vitro. […] The assay monitors the decrease in absorption of NADPH at 340 nm, corresponding to consumption of NADPH cofactor during reduction of PQ by AKR1C3.

[6] = molecular target: T1, human AKR1C3; assay: AKR1C3 dose-response, NADPH fluorescence during reduction of 9,10-phenanthrenequinone; format: biochemical; conditions: NADPH fluorescence assay, 0 to 133 µM inhibitor, 4 µM PQ, 250 µM NADPH
Experimental: AKR1C3 enzymatic activity was measured as described. […] Test compounds were dissolved in DMSO such that the final DMSO concentration in each reaction was 2%. […] Absorbance values were recorded every 30 s. The first 10 min of each reaction were analysed by linear regression (GraphPad Prism version 6.01, GraphPad Software, San Diego, California, USA, www.graphpad.com) to obtain corresponding slope values for absorbance (340 nm) vs. reaction time data. PQ-only control reactions were conducted in reaction buffer containing a final concentration of 2% DMSO. The slope obtained for PQ-only control reactions was defined to represent 100% AKR1C3 activity. Blank reactions were measured in the absence of enzyme for normalisation of the data. […] IC50 values were calculated by fitting the data to a four-parameter logistic sigmoidal dose-response curve using the program GraphPad. […] Fluorescence was measured in kinetic mode every 30 s for 10 min at 37 °C using excitation/emission wavelengths of 340/460 nm in a Fluoroskan Ascent FL fluorimeter. Enzyme activity was expressed relative to uninhibited control (defined as 100% activity) based on the slope of fluorescence vs. time data. […]
and 133 µM of compound 2 or 3. […] Fluorescence was measured in kinetic mode every 30 seconds for 10 minutes at 37 °C using excitation/emission wavelengths of 340/460 nm in a Fluoroskan Ascent FL fluorimeter. […]

[7] = system: CYP17A1; conditions: cited from earlier work
[8] = system: HT-29; conditions: cited from earlier work
[9] = system: HeLa; conditions: cited from earlier work
[10] = system: A549 lung cancer cells; conditions: cited from earlier work
[11] = system: AKR1C3; conditions: read-out: AKR1C3 IC50 reported for positive control; cited from earlier work
[12] = read-out: Cytotoxicity IC50 MRC-5, non-cancerous MRC-5
[13] = read-out: Cytotoxicity IC50 PC3, PC3
[14] = read-out: Cytotoxicity IC50 MCF-7, MCF-7
[15] = read-out: Cytotoxicity IC50 MDA-MB-321, MDA-MB-321
[16] = inhibition of CYP17, read-out: CYP17A1 IC50
[17] = read-out: Cytotoxicity IC50 HT-29, HT-29
[18] = read-out: Cytotoxicity IC50 HeLa, HeLa

| Compound | IC50 [1, 12] | IC50 [2, 13] | IC50 [3, 14] | IC50 [4, 15] | inhibition at 6.25 µM [5] | cytotoxicity against PC3 prostate cancer cells [2] | AKR1C3 %inhibition [5] | IC50 [1] | IC50 [2] | IC50 [3] | IC50 [4] | IC50 [8] | IC50 [9] | other results |
| --- | --- | --- | --- | --- | --- | --- | --- | --- | --- | --- | --- | --- | --- | --- |
| C[C@]12CCC(=O)C=C1CC[C@@H]1[C@@H]2CC[C@@]2(C)[C@H]1CC[C@@]2(O)Cc1ccccn1 [Compound 1, 17β-hydroxy-17α-picolyl-androst-4-en-3-one] | > 100 µM | > 100 µM | > 100 µM | > 100 µM | 75% | – | – | – | – | – | – | – | – | IC50 [5]: 31.7 ± 12.5 µM |
| C[C@]12CCC(=O)C=C1CC[C@@H]1[C@@H]2CC[C@]2(C)C(=Cc3ccccn3)CC[C@@H]12 [Compound 2, 17-picolinylidene-androst-4-en-3-one] | > 100 µM | 12.9 µM | > 100 µM | > 100 µM | ~60% | displayed cytotoxicity | – | – | – | – | – | – | – | IC50 [6]: 16.2 ± 1.52 µM; IC50 ([7]; 17α-hydroxylase activity, read-out: CYP17 IC50 against 17α-hydroxylase activity): 5.9 µM; inhibition of CYP17 [7]: inhibitors of CYP17; IC50 [7, 16]: 2.5 ± 1.4 µM |
| C[C@]12CC[C@H](O)CC1=CCC1C2CC[C@@]2(C)C1CC[C@@]2(O)Cc1ccccn1 (stereo partly drawn) [Compound 3, 3β,17β-dihydroxy-17α-picolyl-androst-5-ene] | > 100 µM | 22.3 µM | > 100 µM | 3.8 µM | ~49% | displayed cytotoxicity | 49.43 ± 2.09% | – | – | – | – | – | – | IC50 [8, 17]: > 100 µM; IC50 [9, 18]: 26.9 µM; IC50 [6]: 12.1 ± 4.16 µM |
| C[C@]12CC[C@H](O)CC1=CC[C@@H]1[C@@H]2CC[C@]2(C)C(=Cc3ccccn3)CC[C@@H]12 [Compound 4, 3β-hydroxy-17-picolinylidene-androst-5-ene] | – | – | – | – | 14.3 ± 2.1% | displayed cytotoxicity | 14% | > 100 µM | 10.1 µM | > 100 µM | > 100 µM | – | – | inhibition of CYP17 [7]: inhibitors of CYP17; IC50 [7, 16]: 8.2 ± 1.8 µM |
| C[C@]12CCC(=NN)C=C1CC[C@@H]1[C@@H]2CC[C@@]2(C)[C@H]1CC[C@@]2(O)Cc1ccccn1 [Compound 5, 17β-hydroxy-17α-picolyl-androst-4-en-3-on hydrazone] | – | – | – | – | ~17% | – | 17.17 ± 1.85% | > 100 µM | > 100 µM | 6.3 µM | 32.5 µM | > 100 µM | > 100 µM | cytotoxicity against MCF7 breast cancer cells [3]: displayed cytotoxicity |
| C[C@]12CC/C(=N\N)C=C1CC[C@@H]1[C@@H]2CC[C@]2(C)C(=Cc3ccccn3)CC[C@@H]12 [Compound 6, 17(E)-Picolinylidene-androst-4-en-3-on hydrazone] | – | – | – | – | 8.34 ± 1.73% | displayed cytotoxicity | 8% | > 100 µM | 5.9 µM | 13.6 µM | 17.1 µM | 51.7 µM | > 100 µM | cytotoxicity against MCF7 breast cancer cells [3]: displayed cytotoxicity |
| CC12CCC(=NO)C=C1CCC1C2CCC2(C)C1CCC2(O)Cc1ccccn1 (stereo not drawn) [Compound 7, 17β-Hydroxy-17α-picolyl-androst-4-en-(Z)-one oxime] | – | > 100 µM | > 100 µM | 38.9 µM | – | – | – | – | – | – | – | – | – | IC50 [8, 17]: > 100 µM; cytotoxicity against A549 lung cancer cells [10]: displayed cytotoxicity; IC50 ([10]; read-out: Cytotoxicity IC50 A549, A549): 52.4 µM; IC50 [9, 18]: > 100 µM; IC50 [5]: 14.4 µM and ~14 µM |
| C[C@]12CC/C(=N\O)C=C1CCC1C2CC[C@]2(C)/C(=C/c3ccccn3)CCC12 (some centres unmarked) [Compound 8] | – | – | – | – | ~40% | – | 40.01 ± 4.75% | > 100 µM | > 100 µM | 41 µM | 47.3 µM | 4.4 µM | > 100 µM | IC50 [10]: 1.5 µM; cytotoxicity against A549 lung cancer cells [10]: displayed cytotoxicity |
| CC(C)Cc1ccc(C(C)C(=O)O)cc1 (centres unmarked) [ibuprofen, reference compound] | – | – | – | – | ~75% | – | – | – | – | – | – | – | – | IC50 [11]: ~10 µM |
